Results: PubChem BioAssay (NCI)
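Five compound concentrations were applied to cells in 96-well plates for 48 hours; endpoints were derived by simple linear interpolation of the resulting dose-response curve. At the GI50, growth is halved. TGI is the concentration that stops growth completely.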

How the values were obtained:
Test in all cases: NCI-60 cell line screen, 48 h
MCF7 breast = tested on: MCF7 breast
RXF 393 renal = tested on: RXF 393 renal
OVCAR-4 ovarian = tested on: OVCAR-4 ovarian
NCI-H522 lung = tested on: NCI-H522 lung
A498 renal = tested on: A498 renal
SF-295 CNS = tested on: SF-295 CNS
U251 CNS = tested on: U251 CNS
KM12 colon = tested on: KM12 colon
UACC-257 melanoma = tested on: UACC-257 melanoma
M14 melanoma = tested on: M14 melanoma

Row | SMILES | TGI (MCF7 breast) [µM] | TGI (RXF 393 renal) [µM] | TGI (OVCAR-4 ovarian) [µM] | TGI (NCI-H522 lung) [µM] | TGI (A498 renal) [µM] | TGI (SF-295 CNS) [µM] | TGI (U251 CNS) [µM] | TGI (KM12 colon) [µM] | TGI (UACC-257 melanoma) [µM] | TGI (M14 melanoma) [µM] | GI50 (MCF7 breast) [µM] | GI50 (RXF 393 renal) [µM] | GI50 (OVCAR-4 ovarian) [µM] | GI50 (NCI-H522 lung) [µM] | GI50 (A498 renal) [µM] | GI50 (SF-295 CNS) [µM] | GI50 (U251 CNS) [µM] | GI50 (KM12 colon) [µM] | GI50 (UACC-257 melanoma) [µM] | GI50 (M14 melanoma) [µM]
1 | Cc1c2ccnc(-c3ccccc3)c2cc2c1[nH]c1ccccc12 | 8.59 | 6.22 | 32.7 | 27.7 | 10.6 | 5.45 | 7.76 | 26 | 6.26 | – | – | – | – | – | – | – | – | – | – | –
2 | O=C(CSCC(=O)N/N=C/c1cccc(OCc2ccccc2)c1)N/N=C/c1cccc(OCc2ccccc2)c1 | > 100 | > 100 | > 100 | > 100 | > 69.7 | > 100 | > 100 | > 100 | > 85.1 | > 100 | – | – | – | – | – | – | – | – | – | –
3 | O=C(O)c1ccccn1 | > 100 | > 100 | > 100 | – | > 100 | > 100 | > 100 | > 100 | > 100 | > 100 | – | – | – | – | – | – | – | – | – | –
4 | CCOC(=O)c1c2c(c(O)c3ccccc3c(O)n(-c3ccc(C)cc3)c1C)C(=O)C=CC2=O | 55.7 | 55.7 | 29.9 | 41.7 | – | 37 | 52.9 | 81.7 | 29.3 | 44.8 | – | – | – | – | – | – | – | – | – | –
5 | COc1ccc(-n2c3c(c4cc(O)ccc42)C(=O)c2ccccc2C3=O)cc1 | > 100 | 18 | > 100 | > 100 | 22.5 | 17.6 | – | > 100 | > 100 | > 100 | – | – | – | – | – | – | – | – | – | –
6 | NCS(=O)(=O)O | > 100 | > 100 | > 100 | > 100 | > 100 | > 100 | > 100 | > 100 | > 100 | > 100 | – | – | – | – | – | – | – | – | – | –
7 | COc1cc2c(cc1OC)C(Cl)C(c1ccc(Cl)cc1)=C2Cl (stereo not drawn) | – | – | – | 32.5 | 46 | 30 | 26.6 | – | – | 33.6 | – | – | – | – | – | – | – | – | – | –
8 | C[C@@H]1CC[C@H]2C(COC/C=C/COCC3=C(C(F)(F)F)O[C@@H]4O[C@@]5(C)CC[C@H]6[C@H](C)CC[C@@H]3[C@@]46OO5)=C(C(F)(F)F)O[C@@H]3O[C@@]4(C)CC[C@@H]1[C@]32OO4 | > 58.3 | > 20.7 | > 100 | > 100 | > 100 | – | 0.179 | 0.0328 | 11.8 | > 100 | 0.028 | 1.64 | 0.518 | 0.327 | 1.54 | < 0.0244 | < 0.01 | < 0.01 | 0.0538 | –
9 | O=C(CC1(O)C(=O)Nc2ccc(Br)cc21)c1ccc(C(=O)NCC2CCC3(CC2)OOC2(CCCCC2)OO3)cc1 (stereo not drawn) | 26.5 | 26.7 | 72.3 | 1.37 | 30.2 | 35 | 6.51 | 31.2 | 29 | 63.4 | 3.05 | 5.46 | 6.93 | 0.336 | 14.7 | 7.1 | 2.24 | 3.08 | 10.6 | 8.68
10 | CN(C)c1ccc2nc3c(C(=O)O)cc(=O)c(O)c-3oc2c1 | 56.5 | 76.3 | > 100 | 31.9 | > 100 | > 100 | > 100 | > 100 | 32.3 | 49.8 | – | – | – | – | – | – | – | – | – | –
11 | COc1ccc(CNc2nc(NCc3ccc(OC)cc3)nc(NC(C)C)n2)cc1 | 5.6 | 38.5 | > 100 | 10.6 | 47.1 | > 100 | > 100 | 76.3 | 39.8 | 16.7 | – | – | – | – | – | – | – | – | – | –
12 | CN(C)c1ccc(C2CC(=O)C(C#N)=C(c3ccccc3)NN2C)cc1 (stereo not drawn) | – | > 100 | > 100 | 28.5 | > 100 | > 100 | > 100 | > 100 | > 100 | 35.5 | – | – | – | – | – | – | – | – | – | –
13 | COc1cccc(-c2cccc(SC)n2)n1 | > 100 | 63 | > 100 | – | – | > 100 | > 100 | > 100 | 98.9 | > 100 | – | – | – | – | – | – | – | – | – | –
14 | CCOC(=O)C1=C(C)N(C)C(=S)NC1c1cccc(O)c1 (stereo not drawn) | > 100 | 52.4 | > 100 | > 100 | 84 | > 100 | > 100 | > 100 | > 100 | 83.1 | – | – | – | – | – | – | – | – | – | –
15 | CC[C@H](Nc1nc(N)nc(N)c1Cl)c1nc2cccc(NCc3ccc(C(=O)NO)cc3)c2c(=O)n1-c1ccccc1 | 7.2 | 1.75 | – | 3.6 | 2.71 | – | 3.08 | 4.62 | 4.92 | – | 2.25 | 0.403 | – | 1.29 | 1.34 | – | 1.51 | 2.08 | 1.94 | –
16 | CCN(CC)Cc1ccc2cccnc2c1O | > 100 | > 100 | > 100 | 3.28 | 33.5 | 51.2 | > 100 | – | > 100 | – | – | – | – | – | – | – | – | – | – | –
17 | Cc1ccc(C)c(/C(=N\N=C(N)N)C2CC2)c1 | > 100 | > 100 | > 100 | > 100 | > 100 | > 100 | 36.2 | > 100 | > 100 | > 100 | – | – | – | – | – | – | – | – | – | –
18 | Oc1cc(O)cc(/C=C/c2ccc(O)c(O)c2)c1 | > 56.1 | 45.7 | > 100 | 7.17 | > 70 | 60 | 42.8 | 11.2 | > 100 | – | – | – | – | – | – | – | – | – | – | –
19 | CC(C)CNc1nc(N)[nH]c(=O)c1NC=O | > 100 | > 100 | > 100 | > 100 | > 100 | > 100 | > 100 | > 100 | > 100 | > 100 | – | – | – | – | – | – | – | – | – | –
20 | c1ccc([C@@H]2N[C@@]3(CO[Si](c4ccccc4)(c4ccccc4)c4ccccc4)CC[C@H]4CN[C@@H]2[C@H]43)cc1 | 11.5 | 16.9 | 29.3 | 16.1 | 30.4 | 25 | 30.9 | 12.4 | 27.5 | 17.4 | – | – | – | – | – | – | – | – | – | –
21 | O=C1c2ccccc2C(=O)c2c(NCCNC(=O)C3CCCN3)ccc(NCCNC(=O)C3CCCN3)c21 (stereo not drawn) | > 100 | – | > 100 | 65.2 | – | > 100 | > 100 | 49.8 | > 100 | > 100 | – | – | – | – | – | – | – | – | – | –
22 | Cc1ncc(CO)c(CN)c1O | > 100 | > 100 | > 100 | > 100 | > 100 | > 100 | > 100 | > 100 | > 100 | > 100 | – | – | – | – | – | – | – | – | – | –
23 | COc1cc2c(cc1OC)C1C(O)C(OC)C=C3CC[N+](C)(C2)C31 (stereo not drawn) | > 100 | > 100 | > 100 | > 100 | > 100 | > 100 | > 100 | > 100 | > 100 | > 100 | – | – | – | – | – | – | – | – | – | –
24 | C[C@H]1CCC/C=C/[C@@H]2C[C@H](O)C[C@H]2[C@H](O)[C@@H](S(=O)CCN)CC(=O)O1 (stereo partly drawn) | – | 0.0456 | – | 0.926 | 0.126 | > 100 | > 100 | – | > 100 | – | 0.0316 | < 0.0141 | < 0.0273 | 0.0986 | 0.0322 | 0.117 | 0.0538 | < 0.0139 | < 0.0234 | 0.0294
25 | Cn1cnc2c(OCC3CCCCC3)nc(N)nc21 | > 100 | > 100 | > 100 | > 100 | – | > 100 | > 100 | > 100 | > 100 | > 100 | – | – | – | – | – | – | – | – | – | –
26 | CN(C)CCNC(=O)c1cccc2nc3c4ccccc4c4ccccc4c3nc12 | 3.47 | 4.65 | 3.24 | 23.4 | 15.6 | 10.1 | 4.56 | 3.06 | 10.6 | 4.97 | – | – | – | – | – | – | – | – | – | –
27 | O=C(c1cc(Br)ccc1O)c1cc(Br)ccc1O | 31.3 | 27.9 | 30.2 | 33 | 31.4 | 33.7 | 28.8 | 30.8 | 29.1 | 29.1 | – | – | – | – | – | – | – | – | – | –
28 | COc1cc2ccc1-c1cc(ccc1O)CC1c3cc4c(cc3CCN1C)Oc1c(OC)cc3c(c1O4)C(C2)N(C)CC3 (stereo not drawn) | – | 3.24 | 3.72 | 3.2 | 3.79 | 3.33 | 3.07 | 3.32 | 3.23 | 3.32 | – | – | – | – | – | – | – | – | – | –
29 | C=CCNC(=O)/C(Cc1cc(Br)c(OC)c(Br)c1O)=N\O | > 100 | – | 84.6 | 6.07 | 46.7 | 21.5 | 39.8 | 19.8 | 27.1 | 23.6 | – | – | – | – | – | – | – | – | – | –
